Experimental data taken from patent publication EP4644396A1 (Visionpharma (Nantong) Co., Ltd, priority 2022, dated 2024).
Like-named read-outs stand apart in the source and are kept apart here.

How the values were obtained:
human TLR8 = molecular target: T1, human TLR8 (Homo sapiens, UniProt Q9NR97); assay: HEK-Blue hTLR8 SEAP reporter gene inhibition assay; assay type: cell-based; conditions: hTLR8 HEK-Blue cells, TLR8 ligand 10 µM, 20 hours, SEAP by Quanti-blue; class symbols; read-out: HEK-Blue hTLR8 IC50
T1 construct: expressed in transfected cells
T1 sequence (Q9NR97 27-1041): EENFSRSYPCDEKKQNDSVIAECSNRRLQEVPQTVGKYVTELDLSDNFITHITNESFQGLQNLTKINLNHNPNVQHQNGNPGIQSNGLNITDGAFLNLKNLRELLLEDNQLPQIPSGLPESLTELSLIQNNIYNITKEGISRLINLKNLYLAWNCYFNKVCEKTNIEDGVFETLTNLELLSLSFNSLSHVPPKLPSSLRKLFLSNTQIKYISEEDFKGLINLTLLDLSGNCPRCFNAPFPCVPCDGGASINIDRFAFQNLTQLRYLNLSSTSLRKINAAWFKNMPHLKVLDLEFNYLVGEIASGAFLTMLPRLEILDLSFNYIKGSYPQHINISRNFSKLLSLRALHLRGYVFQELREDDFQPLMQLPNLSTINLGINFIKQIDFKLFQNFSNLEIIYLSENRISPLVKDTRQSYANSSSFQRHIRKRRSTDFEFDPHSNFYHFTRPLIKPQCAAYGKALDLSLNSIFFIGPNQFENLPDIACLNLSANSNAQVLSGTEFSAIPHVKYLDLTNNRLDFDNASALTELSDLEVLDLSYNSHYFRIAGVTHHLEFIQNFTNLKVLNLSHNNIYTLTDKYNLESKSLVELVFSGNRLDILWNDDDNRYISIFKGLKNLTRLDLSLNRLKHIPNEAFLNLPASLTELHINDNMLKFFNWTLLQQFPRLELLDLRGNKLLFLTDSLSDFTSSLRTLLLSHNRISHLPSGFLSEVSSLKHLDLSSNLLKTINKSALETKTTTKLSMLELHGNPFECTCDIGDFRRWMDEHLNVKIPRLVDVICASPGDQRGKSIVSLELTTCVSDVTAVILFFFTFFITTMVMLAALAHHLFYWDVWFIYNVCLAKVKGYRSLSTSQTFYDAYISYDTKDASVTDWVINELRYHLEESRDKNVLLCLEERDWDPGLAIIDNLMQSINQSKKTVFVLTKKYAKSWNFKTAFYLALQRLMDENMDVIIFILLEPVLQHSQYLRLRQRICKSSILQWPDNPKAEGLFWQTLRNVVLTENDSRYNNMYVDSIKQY
Procedure: (§1) HEK-Blue cells with stable expression of human TLR7 or TLR8 were used in the evaluation of inhibitory activity of compounds in the present invention against TLR7 or TLR8, by using its ability to induce the SEAP reporting gene under the control of the fusion of IFN-β minimum promoters into five NF-κB and ap-1 binding sites, as follows: hTLR7 HEK-Blue cells (Invivogen, 80, 000 cells per well) or hTLR8 HEK-Blue cells (60, 000 cells per well) were added to a 96-well cell culture plate. A solution of the testing compounds were added to each well, with the final concentration of tested compounds in the medium ranged from 0.001 to 36 µM and the culture was incubated for 15 minutes. M5049 was used as positive controls in the testing.
(§2) Then a TLR7 ligand (Gardiquimod, purchased from MedChemExpress, with final concentration of ligand in cell culture medium kept at 10 µM) or a TLR8 ligand (purchased from MedChemExpress with final concentration in cell culture media at 10 µM) and the culture was incubated for 20 hours. According to the manufacturer's instructions, a HEK-Blue reagent Quanti-blue (Invivogen) was used to detect the SEAP levels in cell cultures. The half […] concentration or IC50 was calculated by using GraphPad Prism. […] Table 1: Activities of examples in this invention to hTLR7/8 in HEK-Blue Cells

human TLR7 = molecular target: T2, human TLR7 (Homo sapiens, UniProt Q9NYK1); assay: HEK-Blue hTLR7 SEAP reporter gene inhibition assay; assay type: cell-based
T2 sequence (Q9NYK1 27-1049): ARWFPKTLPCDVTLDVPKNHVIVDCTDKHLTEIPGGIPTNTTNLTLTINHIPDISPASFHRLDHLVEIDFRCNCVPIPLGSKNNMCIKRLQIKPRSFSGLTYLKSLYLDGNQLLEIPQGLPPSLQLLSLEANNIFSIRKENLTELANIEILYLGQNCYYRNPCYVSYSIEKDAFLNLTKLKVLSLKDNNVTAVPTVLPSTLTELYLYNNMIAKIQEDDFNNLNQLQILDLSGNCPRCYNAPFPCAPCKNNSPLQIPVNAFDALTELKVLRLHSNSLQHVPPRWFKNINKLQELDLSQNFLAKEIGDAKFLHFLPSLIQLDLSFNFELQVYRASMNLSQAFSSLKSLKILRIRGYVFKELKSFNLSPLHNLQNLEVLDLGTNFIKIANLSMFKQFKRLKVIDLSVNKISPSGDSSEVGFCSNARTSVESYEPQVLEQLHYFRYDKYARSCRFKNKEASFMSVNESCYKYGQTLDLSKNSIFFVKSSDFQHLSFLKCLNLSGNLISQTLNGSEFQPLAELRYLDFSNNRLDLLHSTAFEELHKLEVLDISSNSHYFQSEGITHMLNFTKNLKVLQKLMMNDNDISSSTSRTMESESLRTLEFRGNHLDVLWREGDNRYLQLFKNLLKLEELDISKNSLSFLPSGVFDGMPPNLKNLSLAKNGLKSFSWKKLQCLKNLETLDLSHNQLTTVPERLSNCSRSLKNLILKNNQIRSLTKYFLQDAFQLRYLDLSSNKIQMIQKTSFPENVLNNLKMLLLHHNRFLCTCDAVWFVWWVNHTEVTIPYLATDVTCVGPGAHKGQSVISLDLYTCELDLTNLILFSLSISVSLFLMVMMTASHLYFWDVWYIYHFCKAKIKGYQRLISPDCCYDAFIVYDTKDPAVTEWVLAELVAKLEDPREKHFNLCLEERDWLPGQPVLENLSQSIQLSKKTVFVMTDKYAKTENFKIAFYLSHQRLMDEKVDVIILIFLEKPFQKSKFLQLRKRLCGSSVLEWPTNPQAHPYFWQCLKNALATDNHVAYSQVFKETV
Procedure: as §1, §2

[1] = hTLR7 HEK-Blue cells, TLR7 ligand Gardiquimod 10 µM, 20 hours, SEAP by Quanti-blue, class symbols, read-out: HEK-Blue hTLR7 IC50

| Molecule | IC50 (human TLR7; [1]) | IC50 (human TLR8) | IC50 (human TLR7; HEK-Blue hTLR7 IC50 (µM)) |
| --- | --- | --- | --- |
| 3-((4R,9S)-2-(7-cyano-3-fluoropyrazolo[1,5-a]pyridin-4-yl)-4,9-dimethyl-1,2,3,4,9,10-hexahydropyrido[3',4':3,4]pyrazolo[1,5-a]pyrazin-8(7H)-yl)cyclobutane-1-carboxamide [Example I-164] | < 0.05 µM | > 0.1 µM |  |
| C[C@@H]1CN(c2ccc(C#N)n3ncc(F)c23)Cc2c3c(nn21)CCC(N)C3 (stereo partly drawn) [Example I-9, 4-((4R)-9-amino-4-methyl-3,4,7,8,9,10-hexahydropyrazino[1,2-b]indazol-2(1H)-yl)-3-fluoropyrazolo[1,5-a]pyridine-7-carbonitrile] | > 0.05 µM |  |  |
| CC(C)N1CCc2c(nn3c2CN(c2ccc(C#N)n4ncc(F)c24)C[C@H]3C)C1 [Example I-23, (R)-3-Fluoro-4-(8-isopropyl-4-methyl-3,4,7,8,9,10-hexahydropyrido[3',4':3,4]pyrazolo[1,5-a]pyrazin-2(1H)-yl)pyrazolo[1,5-a]pyridine-7-carbonitrile] | > 0.05 µM |  |  |
| C[C@@H]1CN(c2ccc(C#N)n3ncc(F)c23)Cc2c3c(nn21)CCN(Cc1cn[nH]c1)C3 [Example I-54, (R)-4-(2-((1H-Pyrazole-4-yl)methyl) -7-methyl-1,3,4,7,8,10-hexahydropyridine[4 ', 3 ': 3, 4]pyrazole [1,5-a]pyrazine-9 (2H) -yl) -3-fluoropyrazole [1,5-a] pyridine-7-nitrile] |  |  | < 0.05 µM |
| C[C@@H]1CN(c2ccc(C#N)n3ncc(F)c23)Cc2c3c(nn21)CCN(CC(F)F)C3 [Example I-56, (R)-4-(2-(2,2-difluoroethyl) -7-methyl-1,3,4,7,8, 10-hexahydropyridine [4 ', 3 ': 3, 4]pyrazole [1,5-a]pyrazine-9 (2H) -yl) -3-fluoropyrazole [1,5-a] pyridine-7-nitrile] |  |  | > 0.05 µM |
| C[C@@H]1CN(c2ccc(C#N)n3ncc(F)c23)Cc2c3c(nn21)CCN(Cc1ccn[nH]1)C3 [Example I-62] |  |  | > 0.05 µM |
| CNC(=O)CN1Cc2nn3c(c2C[C@@H]1C)CN(c1ccc(C#N)n2ncc(F)c12)C[C@H]3C [Example I-101, 2-((4R,9S)-2-(7-cyanide-3-fluoropyridox and [1,5-a]pyridox-4-base)-4,9-dimethyl-1,2,3,4,9, 10-hydropyridox [3 ', 4 ': 3, 4]pyrazolo [1,5-a]pyrazine-8 (7 H) -yl)-N-methyl acetamide] | > 0.05 µM |  |  |
| C[C@@H]1CN(c2ccc(C#N)n3ncc(F)c23)Cc2c3c(nn21)CN(CC(=O)N1CC2(COC2)C1)[C@@H](C)C3 [Example I-112, 4-((4R, 9S) -4,9-dimethyl-8-(2-oxydioxy-2-(2-oxytrioxy-6-nitrous [3.3]helium-6-ethyl)ethyl) -3,4,7,8,9, 10-hydropyridine [3 ', 4 ': 3, 4]pyrazole [1,5-a]pyrazine-2 (1 H) - yl) -3-fluoropyrazole [1,5-a] pyridine-7-nitrile] |  |  | > 0.05 µM |
| C[C@@H]1CN(c2ccc(C#N)n3ncc(F)c23)Cc2c3c(nn21)CN(CC(=O)N1CCNCC1)[C@@H](C)C3 [Example I-113] |  |  | < 0.05 µM |

Now from value to molecule, other results behind:

| IC50 (human TLR7; [1]) | Molecule | IC50 (human TLR8) | IC50 (human TLR7; HEK-Blue hTLR7 IC50 (µM)) |
| --- | --- | --- | --- |
| < 0.05 µM | CCN1CCc2nn3c(c2C1)CN(c1ccc(C#N)n2ncc(F)c12)C[C@H]3C [Example I-25, (R)-4-(2-ethyl-7-methyl-1,3,4,7,8,10-hexahydropyrido[4',3':3,4]pyrazolo[1,5-a]pyrazin-9(2H)-yl)-3-fluoropyrazolo[1,5-a]pyridine-7-carbonitrile] |  |  |
| > 0.05 µM | C[C@@H]1CN(c2ccc(C#N)n3ncc(F)c23)Cc2c3c(nn21)CCN(C1CCC1)C3 [Example I-49, (R)-4-(2-cyclobutyl-7-methyl-1,3,4,7,8,10-hexahydropyrido[4',3':3,4]pyrazolo[1,5-a]pyrazin-9(2H)-yl)-3-fluoropyrazolo[1,5-a]pyridine-7-carbonitrile] |  |  |
| < 0.05 µM | CC(C)N1CCc2nn3c(c2C1)CN(c1ccc(C#N)n2ncc(F)c12)C[C@H]3C [Example I-53, (R)-3-Fluoro-4-(2-isopropyl-7-methyl-1,3,4,7,8,10-hexahydropyrido[4',3':3,4]pyrazolo[1,5-a]pyrazin-9(2H)-yl)pyrazolo[1,5-a]pyridine-7-carbonitrile] |  |  |
| > 0.05 µM | C[C@@H]1CN(c2ccc(C#N)n3ncc(F)c23)Cc2c3c(nn21)CCN(Cc1cnn(C)c1)C3 [Example I-67, (R)-3-Fluoro-4-(7-methyl-2-((1-methyl-1H-pyrazol-4-yl)methyl)-1,3,4,7,8,10-hexahydropyrido[4',3':3,4]pyrazolo[1,5-a]pyrazin-9(2H)-yl)pyrazolo[1,5-a]pyridine-7-carbonitrile] |  |  |
| > 0.05 µM | C[C@@H]1CN(c2ccc(C#N)n3ncc(F)c23)Cc2c3c(nn21)CCC(C)(N)C3 (stereo partly drawn) [Example I-80, 4-((4R)-9-Amino-4,9-dimethyl-3,4,7,8,9,10-hexahydropyrazino[1,2-b]indazol-2(1H)-yl)-3-fluoropyrazolo[1,5-a]pyridine-7-carbonitrile] |  |  |
| < 0.05 µM | C[C@@H]1CN(c2ccc(C#N)n3ncc(F)c23)Cc2c3c(nn21)CN[C@H](CC#N)C3 [Example I-86, 4-((4R,9S)-9-(cyanomethyl)-4-methyl-3,4,7,8,9,10-hexahydropyrido[3',4':3,4]pyrazolo[1,5-a]pyrazin-2(1H)-yl)-3-fluoropyrazolo[1,5-a]pyridine-7-carbonitrile] |  |  |
| < 0.05 µM | C[C@@H]1CN(c2ccc(C#N)n3ncc(F)c23)Cc2c3c(nn21)CN(CC(=O)N(C)C)[C@@H](C)C3 [Example I-102, 2-((4R,9S)-2-(7-cyano-3-fluoropyrazolo[1,5-a]pyridin-4-yl)-4,9-dimethyl-1,2,3,4,9,10-hexahydropyrido[3',4':3,4]pyrazolo[1,5-a]pyrazin-8(7H)-yl)-N,N-dimethylacetamide] |  |  |
| > 0.05 µM | C[C@@H]1CN(c2ccc(C#N)n3ncc(F)c23)Cc2c3c(nn21)CN(Cc1ncco1)[C@@H](C)C3 [Example I-133, 4-((4R,9S)-4,9-dimethyl-8-(oxazol-2-ylmethyl)-3,4,7,8,9,10-hexahydropyrido[3',4':3,4]pyrazolo[1,5-a]pyrazin-2(1H)-yl)-3-fluoropyrazolo[1,5-a]pyridine-7-carbonitrile] |  |  |
